Assay results taken from article PMC6362004, “Minor sequence modifications in temporin B cause drastic changes in antibacterial potency and selectivity by fundamentally altering membrane activity” (Scientific Reports, 2019).
≈ marks a conversion by molar mass, not a printed value. Peptide text beside a SMILES is read from it.

Experiments:
[1] = system: Pseudomonas aeruginosa NCTC 13437; type: cell-based; conditions: NCTC 13437, 18 h
Description: (§1) The antibacterial activity of the peptides studied was assessed through a modified two-fold broth microdilution assay, as described before. Briefly, a two-fold dilution of peptide stock solutions was performed in either non-cation adjusted Müller-Hinton broth (MHB) or Tryptic Soy broth (TSB) in a 96-well polypropylene microtiter plate. Then, 100 µl of bacterial suspension (back diluted from overnight cultures to an A600 of 0.01) were added to 100 µl of peptide solution in each well of the plate. Growth and sterility controls were present for each experiment. The plate was incubated at 37 °C for 18 hours without shaking and the MIC was defined as the lowest concentration where no visible growth could be detected by measuring the absorbance (A600) on an Omega plate reader.

[2] = system: VR Enterococcus faecalis NCTC 12201; type: cell-based; conditions: NCTC 12201, 18 h
Description: as §1

[3] = system: EMR Staphylococcus aureus-16 NCTC 13277; type: cell-based; conditions: NCTC 13277, 18 h
Description: as §1

[4] = system: VS Enterococcus faecalis NCTC 775; type: cell-based; conditions: NCTC 775, 18 h
Description: as §1

[5] = system: EMR Staphylococcus aureus−15 NCTC 13616; type: cell-based; conditions: NCTC 13616, 18 h
Description: as §1

[6] = system: Pseudomonas aeruginosa PAO1; type: cell-based; conditions: PAO1, 18 h
Description: as §1

[7] = system: Acinetobacter baumanii AYE; type: cell-based; conditions: 18 h
Description: as §1

[8] = system: MS Staphylococcus aureus NCTC 6571; type: cell-based; conditions: NCTC 6571, 18 h
Description: as §1

[9] = system: E. coli cytoplasmic membrane; conditions: cited from earlier work
From the text: Here we investigated whether a combined biophysical approach is capable of discriminating the species specific antibacterial mechanisms of action between three analogues of temporin B. Although structures for the three peptides solved in anionic SDS were noticeably different, when applied to model membranes, little difference in conformation could be discerned in the steady-state. To address this, we developed an approach using the Port-a-Patch® tool from Nanion Technologies (Munich, Germany) and correlated the findings obtained from patch-clamp analysis to the primary sequence and the biophys ...

Gram-negative bacteria = conditions: cited from earlier work

Compound | MIC, peptide concentration [3] | MIC, peptide concentration [5] | MIC, peptide concentration [6] | other results
CC[C@H](C)[C@H](NC(=O)[C@@H]1CCCN1C(=O)[C@H](CC(C)C)NC(=O)[C@H](CC(C)C)NC(=O)[C@H](CCCCN)NC(=O)[C@@H](N)CCCCN)C(=O)N[C@H](C(=O)N[C@@H](C)C(=O)N[C@@H](CC(N)=O)C(=O)N[C@@H](CC(C)C)C(=O)N[C@@H](CC(C)C)C(=O)N[C@@H](CCCCN)C(=O)N[C@@H](CO)C(=O)N[C@@H](CC(C)C)C(=O)N[C@@H](CC(C)C)C(N)=O)C(C)C [Temporin B KKG6A] (H-KKLLPIVANLLKSLL-NH2) | >128 mg/L | >128 mg/L |  | MIC, peptide concentration [1]: >128 mg/L; MIC, peptide concentration [2]: >128 mg/L; MIC, peptide concentration [4]: >128 mg/L
CC[C@H](C)[C@H](NC(=O)[C@@H]1CCCN1C(=O)[C@H](CC(C)C)NC(=O)[C@@H](N)Cc1ccccc1)C(=O)N[C@H](C(=O)NCC(=O)N[C@@H](CC(C)C)C(=O)N[C@@H](CC(C)C)C(=O)N[C@@H](CCCCN)C(=O)N[C@@H](CO)C(=O)N[C@@H](CC(C)C)C(=O)N[C@@H](CC(C)C)C(=O)N[C@@H](CCCCN)C(N)=O)C(C)C [Temporin B L1FK] (H-FLPIVGLLKSLLK-NH2) | 16 mg/L (≈ 11.1 µM) | 16 mg/L (≈ 11.1 µM) | 128 mg/L (≈ 88.9 µM) | MIC, peptide concentration [7]: 8 mg/L (≈ 5.56 µM)
CC[C@H](C)[C@H](NC(=O)[C@@H]1CCCN1C(=O)[C@H](CC(C)C)NC(=O)[C@@H](N)CC(C)C)C(=O)N[C@H](C(=O)NCC(=O)N[C@@H](CC(N)=O)C(=O)N[C@@H](CC(C)C)C(=O)N[C@@H](CC(C)C)C(=O)N[C@@H](CCCCN)C(=O)N[C@@H](CO)C(=O)N[C@@H](CC(C)C)C(=O)N[C@@H](CC(C)C)C(N)=O)C(C)C [Temporin B] (H-LLPIVGNLLKSLL-NH2) | 32 mg/L (≈ 23 µM) |  | >128 mg/L | MIC, peptide concentration [8]: 16 mg/L (≈ 11.5 µM)
LL-37: human antimicrobial peptide |  |  |  | Time to permeabilization of the E. coli cytoplasmic membrane and induction of oxidative stress [9]: around 25 minutes
temporin L |  |  |  | MIC (Gram-negative bacteria): 2 to 20 µM
